In patent US10131652B2, “Pyrimidinyloxy benzene derivatives as herbicides” (E. I. DU PONT DE NEMOURS AND COMPANY, priority 2014, dated 2018):

Legend:
Format in all cases: in vivo
[1] = tested on: Italian ryegrass (Lolium multiflorum); experiment: Test B pre-/postemergence plant response
Description: (§1) Seeds of plant species selected from bamyardgrass (Echinochloa crus-galli), kochia (Kochia scoparia), ragweed (common ragweed, Ambrosia elatior), Italian ryegrass (Lolium multiflorum), large (Lg) crabgrass (Digitaria sanguinalis), giant foxtail (Setaria faberii), momingglory (Ipomoea spp.), pigweed (Amaranthus retroflexus), velvetleaf (Abutilon theophrasti), wheat (Triticum aestivum), and corn (Zea mays) were planted into a blend of loam soil and sand and treated preemergence with a directed soil spray using test chemicals formulated in a non-phytotoxic solvent mixture which included a surfactant. At the same time, plants selected from these crop and weed species and also blackgrass (Alopecurus myosuroides), and galium (catchweed bedstraw, Galium aparine) were planted in pots containing the same blend of loam soil and sand and treated with postemergence applications of test chemicals formulated in the same manner. Plants ranged in height from 2 to 10 cm and were in the one- to two-leaf stage for the postemergence treatment. Treated plants and untreated controls were maintained in a greenhouse for approximately 10 days, after which time all treated plants were compared to untreated controls and visually evaluated for injury. Plant response ratings, summarized in Table B, are based on a 0 to 100 scale where 0 is no effect and 100 is complete control. A dash (-) response means no test result.

[2] = tested on: barnyardgrass (Echinochloa crus-galli); experiment: Test B pre-/postemergence plant response
Description: as §1

[3] = tested on: corn (Zea mays); experiment: Test B pre-/postemergence plant response; settings: 0 to 100 scale, 0 no effect, 100 complete control
Description: as §1

[4] = tested on: giant foxtail (Setaria faberii); experiment: Test B pre-/postemergence plant response
Description: as §1

[5] = tested on: kochia (Kochia scoparia); experiment: Test B pre-/postemergence plant response
Description: as §1

[6] = tested on: pigweed (Amaranthus retroflexus); experiment: Test B pre-/postemergence plant response
Description: as §1

[7] = tested on: ragweed (common ragweed, Ambrosia elatior); experiment: Test B pre-/postemergence plant response
Description: as §1

[8] = tested on: wheat (Triticum aestivum); experiment: Test B pre-/postemergence plant response; settings: 0 to 100 scale, 0 no effect, 100 complete control
Description: as §1

[9] = tested on: blackgrass (Alopecurus myosuroides); experiment: Test B postemergence plant response; settings: 0 to 100 scale, 0 no effect, 100 complete control
Outline: (§2)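 Pots, loam soil + sand; postemergence treatment at 1–2 leaf stage, 2–10 cm; greenhouse ~10 d; visual injury score 0 (none) to 100 (complete control) relative to untreated controls.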

[10] = tested on: galium (catchweed bedstraw, Galium aparine); experiment: Test B postemergence plant response; settings: 0 to 100 scale, 0 no effect, 100 complete control
Outline: as §2

[11] = tested on: barnyardgrass (Echinochloa crus-galli); experiment: Test C flooded paddy test plant response; settings: Flood, 250 g ai/ha; scale of 0 to 100 where 0 is no effect and 100 is complete control; 13 to 15 days
Outline: (§3)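 Readout is a visual 0–100 score (100 = complete control) versus controls at 13–15 days. Plants at 2-leaf stage, flooded to 3 cm, treated through paddy water.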

[12] = tested on: ducksalad (Heteranthera limosa); experiment: Test C flooded paddy test plant response; settings: Flood, 250 g ai/ha; scale of 0 to 100 where 0 is no effect and 100 is complete control; 13 to 15 days
Outline: as §3

[13] = tested on: rice (Oryza sativa); experiment: Test C flooded paddy test plant response; settings: Flood, 250 g ai/ha; scale of 0 to 100 where 0 is no effect and 100 is complete control; 13 to 15 days
Outline: as §3

[14] = tested on: small-flower umbrella sedge (Cyperus difformis); experiment: Test C flooded paddy test plant response; settings: Flood, 250 g ai/ha; scale of 0 to 100 where 0 is no effect and 100 is complete control; 13 to 15 days
Outline: as §3

[15] = 31 g ai/ha, Postemergence, 0 to 100 scale, 0 no effect, 100 complete control
[16] = 31 g ai/ha, Preemergence, 0 to 100 scale where 0 is no effect and 100 is complete control
[17] = 125 g ai/ha, postemergence, 0 to 100 scale, 0 no effect, 100 complete control
[18] = Preemergence, 125 g ai/ha, 0 to 100 scale where 0 is no effect and 100 is complete control

Row | SMILES | Plant response rating, Ryegrass, Italian [1, 15] | Plant response rating, Ryegrass, Italian [1, 16] | Plant response rating, Ryegrass, Italian [1, 17] | Plant response rating, Barnyardgrass [2, 15] | Plant response rating, Barnyardgrass [2, 16] | Plant response rating, Barnyardgrass [2, 17] | Plant response rating, Barnyardgrass [2, 18] | Plant response rating, Corn ([3]; 31 g ai/ha, Postemergence) | Plant response rating, Corn ([3]; 125 g ai/ha, postemergence) | Plant response rating, Foxtail, Giant [4, 15] | Plant response rating, Foxtail, Giant [4, 16] | Plant response rating, Foxtail, Giant [4, 17] | Plant response rating, Foxtail, Giant [4, 18] | Plant response rating, Kochia [5, 15] | Plant response rating, Kochia [5, 16] | Plant response rating, Kochia [5, 17] | Plant response rating, Kochia [5, 18] | Plant response rating, Pigweed [6, 15] | Plant response rating, Pigweed [6, 16] | Plant response rating, Pigweed [6, 17] | other results
1 | COc1cccc(Oc2ncc(Cl)cn2)c1-c1cc(C(F)F)on1 [Compound 109] | 10 | 0 | 50 | 60 | 40 | 90 | 100 | 10 | 60 | 60 | 80 | 90 | 100 | 0 | 0 | 30 | 30 | 80 | 90 | 100 | Plant response rating, Ryegrass, Italian [1, 18]: 10; Plant response rating, Pigweed [6, 18]: 100; Plant response rating, Ragweed [7, 15]: 60; Plant response rating, Ragweed [7, 16]: 20; Plant response rating, Ragweed [7, 17]: 90; Plant response rating, Ragweed [7, 18]: 70; Plant response rating, Wheat ([8]; 31 g ai/ha, Postemergence): 0; Plant response rating, Wheat ([8]; 125 g ai/ha, postemergence): 10; Plant response rating, Blackgrass ([9]; 31 g ai/ha, Postemergence): 50; Plant response rating, Blackgrass ([9]; 125 g ai/ha, postemergence): 90; Plant response rating, Galium ([10]; 31 g ai/ha, Postemergence): 50; Plant response rating, Galium ([10]; 125 g ai/ha, postemergence): 100; Barnyardgrass plant response rating [11]: 30; Ducksalad plant response rating [12]: 85; Rice plant response rating [13]: 35; Sedge, Umbrella plant response rating [14]: 80
2 | COc1cccc(Oc2ncc(Cl)cn2)c1-c1cc(C)no1 [Compound 110] | 0 | 0 | 0 | 0 | 0 | 50 | 40 | 0 | 10 | 0 | 0 | 70 | 70 | 10 | 0 | 50 | 0 | 10 | 10 | 30 | Plant response rating, Ragweed [7, 15]: 30; Plant response rating, Ragweed [7, 16]: 0; Plant response rating, Ragweed [7, 17]: 40; Plant response rating, Wheat ([8]; 31 g ai/ha, Postemergence): 0; Plant response rating, Wheat ([8]; 125 g ai/ha, postemergence): 0; Plant response rating, Blackgrass ([9]; 31 g ai/ha, Postemergence): 0; Plant response rating, Blackgrass ([9]; 125 g ai/ha, postemergence): 40; Plant response rating, Galium ([10]; 31 g ai/ha, Postemergence): 20; Plant response rating, Galium ([10]; 125 g ai/ha, postemergence): 70; Barnyardgrass plant response rating [11]: 0; Ducksalad plant response rating [12]: 30; Rice plant response rating [13]: 0; Sedge, Umbrella plant response rating [14]: 60
3 | COc1cccc(Oc2ncc(F)cn2)c1-c1cc(C)no1 [Compound 111] | 0 | 0 | 0 | 0 | 0 | 10 | 20 | 0 | 10 | 0 | 0 | 60 | 50 | 20 | 0 | 30 | 10 | 0 | 10 | 20 | Plant response rating, Ragweed [7, 15]: 10; Plant response rating, Ragweed [7, 16]: 0; Plant response rating, Ragweed [7, 17]: 20; Plant response rating, Wheat ([8]; 31 g ai/ha, Postemergence): 0; Plant response rating, Wheat ([8]; 125 g ai/ha, postemergence): 0; Plant response rating, Blackgrass ([9]; 31 g ai/ha, Postemergence): 0; Plant response rating, Blackgrass ([9]; 125 g ai/ha, postemergence): 40; Plant response rating, Galium ([10]; 31 g ai/ha, Postemergence): 10; Plant response rating, Galium ([10]; 125 g ai/ha, postemergence): 20; Barnyardgrass plant response rating [11]: 0; Ducksalad plant response rating [12]: 0; Rice plant response rating [13]: 0; Sedge, Umbrella plant response rating [14]: 0
4 | N#Cc1cccc(Oc2ncc(Cl)cn2)c1-c1ccsc1 [Compound 112] | 0 | 0 | 0 | 10 | 10 | 30 | 30 | 10 | 20 | 10 | 10 | 60 | 70 | 60 | 0 | 70 | 50 | 30 | 30 | 30 | Plant response rating, Ragweed [7, 15]: 20; Plant response rating, Ragweed [7, 16]: 0; Plant response rating, Ragweed [7, 17]: 30; Plant response rating, Wheat ([8]; 31 g ai/ha, Postemergence): 0; Plant response rating, Wheat ([8]; 125 g ai/ha, postemergence): 0; Plant response rating, Blackgrass ([9]; 31 g ai/ha, Postemergence): 0; Plant response rating, Blackgrass ([9]; 125 g ai/ha, postemergence): 20; Plant response rating, Galium ([10]; 31 g ai/ha, Postemergence): 30; Plant response rating, Galium ([10]; 125 g ai/ha, postemergence): 50; Barnyardgrass plant response rating [11]: 0; Ducksalad plant response rating [12]: 30; Rice plant response rating [13]: 0; Sedge, Umbrella plant response rating [14]: 95
5 | Fc1ccc(Oc2ncc(Cl)cn2)c(-c2cc(C(F)F)on2)c1Br [Compound 114] | 10 | 0 | 60 | 10 | 0 | 20 | 20 | 30 | 50 | 20 | 10 | 60 | 30 | 70 | 20 | 90 | 20 | 100 | 70 | 100 | Plant response rating, Ragweed [7, 15]: 0; Plant response rating, Ragweed [7, 16]: 0; Plant response rating, Ragweed [7, 17]: 20; Plant response rating, Wheat ([8]; 31 g ai/ha, Postemergence): 10; Plant response rating, Wheat ([8]; 125 g ai/ha, postemergence): 20; Plant response rating, Blackgrass ([9]; 31 g ai/ha, Postemergence): 10; Plant response rating, Blackgrass ([9]; 125 g ai/ha, postemergence): 40; Plant response rating, Galium ([10]; 31 g ai/ha, Postemergence): 70; Plant response rating, Galium ([10]; 125 g ai/ha, postemergence): 100; Barnyardgrass plant response rating [11]: 0; Ducksalad plant response rating [12]: 75; Rice plant response rating [13]: 15; Sedge, Umbrella plant response rating [14]: 75
